From patent publication US12559450B2, “Lipidoids for nucleic acid transfection and use thereof” (Ustav Organicke Chemie a Biochemie AV CR, v.v.i., priority 2020, dated 2026)

Columns and labels:
[1] = biological target: STING protein (Homo sapiens, UniProt Q86WV6, H232R); assay: STING activation reporter assay (ISRE luciferase, HEK293T) with cGAMP-LNPs; details: read-out: EC50 STING activation; 2′,3′-cGAMP transfected with cGAMP-LNPs
Description: Cells were transferred to poly-D-lysine (Sigma-Aldrich)-coated 96-well plates (Greiner Bio-One) at a density of 2.5×10^4 in DMEM medium containing glucose (containing L-glutamine; Biowest) supplemented with 10% FBS (Capricorn Scientific) and 1% penicillin-streptomycin (Biowest). After incubation at 37° C. in 5% CO2 overnight, serially diluted compounds were added to the cells for 7 hours. In parallel, HEK293T cells were incubated with the test compounds alone for 30 minutes, washed twice with fresh medium, and then cultured for an additional 6.5 hours. Finally, 50 μl of cell culture medium was mixed with 30 μl of Bright-Glo Luciferase Assay System reagent (Promega) in white 96-well plates and luminescence was read in a Spark® spectrophotometer (TECAN, Grodig).

[2] = tested on: U2OS; assay: Cellular toxicity of mRNA-LNP, CellTiterGlo 2.0 viability; assay type: cell-based, human; details: total lipid 100 μM (context of the sentence)
Description: A human cell line derived from embryonic kidney cells (HEK293), the same line expressing SV40 large T antigen (HEK293T), human osteosarcoma-derived cell line (U2OS), and human hepatocyte carcinoma cell line (HepG2) were cultured in 96-well plates (5×10^4 cells in 100 μl of culture medium per well) in Dulbecco's modified medium (DMEM) or in IMDM medium (Iscove's Modified Dulbecco's medium) supplemented with 10% foetal bovine serum (FBS) at 37° C. in 5% CO2. Cells were transfected with 2 μl of mRNA-LNPs generated in triplicates in Example 25 (the final total concentration of all lipid components in the well was 20 μM) or 10 μl of mRNA-LNPs (the final total concentration of all lipid components in the well was 100 μM) and subsequently incubated for 24 hours. The cytotoxicity of LNPs was analysed in a CellTiterGlo 2.0 cell viability assay (Promega, USA). Cell viability was normalized to non-transfected cells (control).

Sequence of STING protein (Q86WV6 whole entry H232R): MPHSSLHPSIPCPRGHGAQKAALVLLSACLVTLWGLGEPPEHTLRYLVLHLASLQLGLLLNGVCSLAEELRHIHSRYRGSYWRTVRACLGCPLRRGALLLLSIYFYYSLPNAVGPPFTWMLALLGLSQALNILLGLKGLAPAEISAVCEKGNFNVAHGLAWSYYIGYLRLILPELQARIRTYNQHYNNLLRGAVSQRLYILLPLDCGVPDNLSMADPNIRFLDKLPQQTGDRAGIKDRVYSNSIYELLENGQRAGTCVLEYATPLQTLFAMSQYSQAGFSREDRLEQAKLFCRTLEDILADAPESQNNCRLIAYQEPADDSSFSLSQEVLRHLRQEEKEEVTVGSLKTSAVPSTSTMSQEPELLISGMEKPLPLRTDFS

EC50 [1]: 2 ± 0.36 nM
Compound: CCCCCCCCCCCCN(CCCCCCCCCCCC)CCCCCNC(=O)C12CC3CC(C(=O)NCCCCCN(CCCCCCCCCCCC)CCCCCCCCCCCC)(C1)CC(C(=O)NCCCCCN(CCCCCCCCCCCC)CCCCCCCCCCCC)(C3)C2 [4d]
toxicity of particles formed by the lipidoid (in words) [2]: non-toxic
